Data: patent US20070232614A1, “Therapeutic Agent for Nonviral Hepatitis” (Mitsubishi Pharma Corporation, priority 2004, published 2007)

Key:
[1] = tested on: concanavalin A-induced hepatitis; test: Action on concanavalin A-induced hepatitis (plasma ALT 8 hr after Con A); assay type: in vivo, female BALB/c mouse; settings: therapeutic administration 3 hr after Con A injection (20 mg/kg i.v.), mouse
Procedure: 20 mg/kg of concanavalin A (Con A, type V, manufactured by Sigma) was intravenously administered to female BALB/c mouse (purchased from Charles River Laboratories JAPA, INC.). […] The administration time in the prophylactic administration test of pentoxifylline (manufactured by Sigma) or anti-mouse TNF-α antibody (manufactured by Genzyme-Techne) was set according to the method of Shirin et al. [Journal of Hepatology, 29, 60-67 (1998)] or Gantner et al. [Hepatology, 21, 190-198 (1995)]. The administration time in the therapeutic administration test was always set to 3 hr after Con A injection. To be specific, pentoxifylline (100 mg/kg) was intraperitoneally administered 2 hr before or 3 hr after Con A injection, anti-mouse TNF-α antibody (250 μg, was intravenously administrated 15 minutes before or 3 hr after Con A injection, and plasma SALT was similarly measured 8 hr later.
In addition, the test compound (10 mg/kg) was intravenously administrated 15 minutes before or 3 hr after Con A injection, and plasma ALT concentration was similarly measured.
The results are shown in mean±standard error.

[2] = tested on: concanavalin A-induced hepatitis; settings: prophylactic administration before injection of concanavalin A; mouse; non-patent references 3 and 4; cited from earlier work
[3] = tested on: severe alcoholic hepatitis; settings: non-patent references 1 and 2; cited from earlier work

Row | SMILES | therapeutic effect in the hepatitis model (progress of concanavalin A-induced hepatitis, plasma ALT) [1] | inhibition of the progress of concanavalin A-induced hepatitis [2] | effectiveness for severe alcoholic hepatitis [3]
1 | CC(=O)CCCCn1c(=O)c2c(ncn2C)n(C)c1=O [pentoxifylline] | do not inhibit progress | inhibit the progress | effective
2 | CC(=O)NC1(c2ccc(CN3CCN(c4ncccn4)CC3)cc2)CC1.Cl [test compound, N-(1-(4-((4-(pyrimidin-2-yl)piperazin-1-yl)methyl)phenyl)cyclopropyl)acetamide hydrochloride] | shows a therapeutic effect |  | 
